According to patent US12077503B2, “Substituted cyclic amides and their use as herbicides” (FMC CORPORATION, priority 2015, dated 2024):

Assays:
Assay in all cases: Test C preemergence
Assay type in all cases: in vivo
Conditions in all cases: scale 0 to 100, 0 no effect, 100 complete control
[1] = test system: barnyardgrass (Echinochloa crus-galli)
Excerpt: (§1) Seeds of plant species selected from blackgrass (Alopecurus myosuroides), ryegrass, Italian (Italian ryegrass, Lolium multiflorum), wheat (winter wheat, Triticum aestivum), Galium (catchweed bedstraw, Galium aparine), corn (Zea mays), crabgrass, large (large crabgrass, Digitaria sanguinalis), foxtail, giant (giant foxtail, Setaria faberii), johnsongrass (Sorghum halepense), lambsquarters (Chenopodium album), morningglory (Ipomoea coccinea), nutsedge, yellow (yellow nutsedge, Cyperus esculentus), pigweed (Amaranthus retroflexus), ragweed (common ragweed, Ambrosia elatior), soybean (Glycine max), barnyardgrass (Echinochloa crus-galli), oilseed rape (Brassica napus), waterhemp (common waterhemp, Amaranthus rudis) and velvetleaf (Abutilon theophrasti) were planted into a blend of loam soil and sand and treated preemergence with test chemicals formulated in a non-phytotoxic solvent mixture which included a surfactant.
(§2) At the same time, plants selected from these crop and weed species and also Kochia (Kochia scoparia), oat, wild (wild oat, Avena fatua), and chickweed (common chickweed, Stellaria media) were planted in pots containing Sunshine Redi-Earth® planting medium comprising spaghnum peat moss, vermiculite, starter nutrients and dolomitic limestone and treated with postemergence applications of test chemicals formulated in the same manner. Plants ranged in height from 2 to 18 cm (1- to 4-leaf stage) for postemergence treatments. Treated plants and controls were maintained in a greenhouse for 13 to 15 d, after which time all species were compared to controls and visually evaluated. Plant response ratings, summarized in Table C, are based on a scale of 0 to 100 where 0 is no effect and 100 is complete control. A dash (-) response means no test result.

[2] = test system: blackgrass (Alopecurus myosuroides)
Excerpt: as §1, §2

[3] = test system: corn (Zea mays)
Excerpt: as §1, §2

[4] = test system: crabgrass, large (large crabgrass, Digitaria sanguinalis)
Excerpt: as §1, §2

[5] = test system: foxtail, giant (giant foxtail, Setaria faberii)
Excerpt: as §1, §2

[6] = test system: johnsongrass (Sorghum halepense)
Excerpt: as §1, §2

[7] = test system: lambsquarters (Chenopodium album)
Excerpt: as §1, §2

[8] = test system: morningglory (Ipomoea coccinea)
Excerpt: as §1, §2

[9] = test system: nutsedge, yellow (yellow nutsedge, Cyperus esculentus)
Excerpt: as §1, §2

[10] = test system: oilseed rape (Brassica napus)
Excerpt: as §1, §2

[11] = test system: pigweed (Amaranthus retroflexus)
Excerpt: as §1, §2

[12] = test system: ragweed (common ragweed, Ambrosia elatior)
Excerpt: as §1, §2

[13] = test system: ryegrass, Italian (Italian ryegrass, Lolium multiflorum)
Excerpt: as §1, §2

[14] = test system: soybean (Glycine max)
Excerpt: as §1, §2

[15] = test system: velvetleaf (Abutilon theophrasti)
Excerpt: as §1, §2

[16] = test system: waterhemp (common waterhemp, Amaranthus rudis)
Excerpt: as §1, §2

[17] = test system: wheat (winter wheat, Triticum aestivum)
Excerpt: as §1, §2

Which “Plant response rating, Barnyardgrass” value ([1]; 31 g ai/ha) does the source give for `CN1CC(c2cccc(OC(F)(F)C(F)F)c2)C(C(=O)Nc2cccc(F)c2F)C1=O` (stereo not drawn) [Compound 392] here?
The value was 90.

What about the “Plant response rating, Barnyardgrass” value ([1]; 62 g ai/ha) of the same compound?
The value was 90.

And the “Plant response rating, Barnyardgrass” value ([1]; 125 g ai/ha)?
Its value is 90.

What about the “Plant response rating, Barnyardgrass” value ([1]; 250 g ai/ha) of the same compound?
Its value is 95.

What about the “Plant response rating, Blackgrass” value ([2]; 31 g ai/ha) of the same compound?
The value was 20.

And the “Plant response rating, Blackgrass” value ([2]; 62 g ai/ha)?
Its value is 45.

And the “Plant response rating, Blackgrass” value ([2]; 125 g ai/ha)?
The value was 70.

What about the “Plant response rating, Blackgrass” value ([2]; 250 g ai/ha) of the same compound?
The value was 60.

What about the “Plant response rating, Corn” value ([3]; 31 g ai/ha) of the same compound?
The value was 45.

And the “Plant response rating, Corn” value ([3]; 62 g ai/ha)?
Its value is 65.

And the “Plant response rating, Corn” value ([3]; 125 g ai/ha)?
The value was 55.

What about the “Plant response rating, Corn” value ([3]; 250 g ai/ha) of the same compound?
The value was 75.

What about the “Plant response rating, Crabgrass, Large” value ([4]; 31 g ai/ha) of the same compound?
Its value is 90.

What about the “Plant response rating, Crabgrass, Large” value ([4]; 62 g ai/ha) of the same compound?
Its value is 95.

And the “Plant response rating, Crabgrass, Large” value ([4]; 125 g ai/ha)?
Its value is 95.

What about the “Plant response rating, Crabgrass, Large” value ([4]; 250 g ai/ha) of the same compound?
Its value is 95.

What about the “Plant response rating, Foxtail, Giant” value ([5]; 31 g ai/ha) of the same compound?
The value was 90.

What about the “Plant response rating, Foxtail, Giant” value ([5]; 62 g ai/ha) of the same compound?
The value was 95.

What about the “Plant response rating, Foxtail, Giant” value ([5]; 125 g ai/ha) of the same compound?
Its value is 95.

What about the “Plant response rating, Foxtail, Giant” value ([5]; 250 g ai/ha) of the same compound?
The value was 95.

What about the “Plant response rating, Johnsongrass” value ([6]; 31 g ai/ha) of the same compound?
The value was 70.

What about the “Plant response rating, Johnsongrass” value ([6]; 62 g ai/ha) of the same compound?
Its value is 85.

What about the “Plant response rating, Johnsongrass” value ([6]; 125 g ai/ha) of the same compound?
The value was 85.

And the “Plant response rating, Johnsongrass” value ([6]; 250 g ai/ha)?
Its value is 90.

What about the “Plant response rating, Lambsquarters” value ([7]; 31 g ai/ha) of the same compound?
The value was 60.

What about the “Plant response rating, Lambsquarters” value ([7]; 62 g ai/ha) of the same compound?
The value was 70.

What about the “Plant response rating, Lambsquarters” value ([7]; 125 g ai/ha) of the same compound?
Its value is 75.

And the “Plant response rating, Lambsquarters” value ([7]; 250 g ai/ha)?
The value was 75.

What about the “Plant response rating, Morningglory” value ([8]; 31 g ai/ha) of the same compound?
Its value is 0.

And the “Plant response rating, Morningglory” value ([8]; 62 g ai/ha)?
Its value is 0.

What about the “Plant response rating, Morningglory” value ([8]; 125 g ai/ha) of the same compound?
Its value is 0.

What about the “Plant response rating, Morningglory” value ([8]; 250 g ai/ha) of the same compound?
Its value is 15.

What about the “Plant response rating, Nutsedge, Yellow” value ([9]; 31 g ai/ha) of the same compound?
The value was 0.

And the “Plant response rating, Nutsedge, Yellow” value ([9]; 62 g ai/ha)?
Its value is 0.

What about the “Plant response rating, Nutsedge, Yellow” value ([9]; 125 g ai/ha) of the same compound?
Its value is 0.

What about the “Plant response rating, Nutsedge, Yellow” value ([9]; 250 g ai/ha) of the same compound?
Its value is 0.

What about the “Plant response rating, Oilseed Rape” value ([10]; 31 g ai/ha) of the same compound?
Its value is 70.

What about the “Plant response rating, Oilseed Rape” value ([10]; 62 g ai/ha) of the same compound?
Its value is 80.

What about the “Plant response rating, Oilseed Rape” value ([10]; 125 g ai/ha) of the same compound?
Its value is 85.

What about the “Plant response rating, Oilseed Rape” value ([10]; 250 g ai/ha) of the same compound?
The value was 90.

What about the “Plant response rating, Pigweed” value ([11]; 31 g ai/ha) of the same compound?
The value was 75.

And the “Plant response rating, Pigweed” value ([11]; 62 g ai/ha)?
Its value is 80.

What about the “Plant response rating, Pigweed” value ([11]; 125 g ai/ha) of the same compound?
Its value is 85.

What about the “Plant response rating, Pigweed” value ([11]; 250 g ai/ha) of the same compound?
Its value is 90.

What about the “Plant response rating, Ragweed” value ([12]; 31 g ai/ha) of the same compound?
The value was 70.

What about the “Plant response rating, Ragweed” value ([12]; 62 g ai/ha) of the same compound?
Its value is 45.

And the “Plant response rating, Ragweed” value ([12]; 125 g ai/ha)?
The value was 60.

What about the “Plant response rating, Ragweed” value ([12]; 250 g ai/ha) of the same compound?
The value was 70.

What about the “Plant response rating, Ryegrass, Italian” value ([13]; 62 g ai/ha) of the same compound?
The value was 40.

What about the “Plant response rating, Ryegrass, Italian” value ([13]; 125 g ai/ha) of the same compound?
Its value is 55.

And the “Plant response rating, Ryegrass, Italian” value ([13]; 250 g ai/ha)?
The value was 90.

What about the “Plant response rating, Soybean” value ([14]; 62 g ai/ha) of the same compound?
The value was 100.

And the “Plant response rating, Soybean” value ([14]; 125 g ai/ha)?
Its value is 15.

And the “Plant response rating, Soybean” value ([14]; 250 g ai/ha)?
Its value is 5.

And the “Plant response rating, Velvetleaf” value ([15]; 62 g ai/ha)?
Its value is 40.

And the “Plant response rating, Velvetleaf” value ([15]; 125 g ai/ha)?
The value was 60.

What about the “Plant response rating, Velvetleaf” value ([15]; 250 g ai/ha) of the same compound?
The value was 70.

What about the “Plant response rating, Waterhemp” value ([16]; 62 g ai/ha) of the same compound?
The value was 85.

What about the “Plant response rating, Waterhemp” value ([16]; 125 g ai/ha) of the same compound?
The value was 90.

What about the “Plant response rating, Waterhemp” value ([16]; 250 g ai/ha) of the same compound?
The value was 90.

And the “Plant response rating, Wheat” value ([17]; 62 g ai/ha)?
The value was 35.

And the “Plant response rating, Wheat” value ([17]; 125 g ai/ha)?
Its value is 80.

What about the “Plant response rating, Wheat” value ([17]; 250 g ai/ha) of the same compound?
Its value is 75.
